Laboratory results from US20100197643A1, “PHYTOCHEMICAL-RICH OILS AND METHODS RELATED THERETO” (priority 2007, published 2010).
One block for each molecule: values may come before it.

How the values were obtained:
caspase-3 = test: Caspase-3 activation in HL-60 cells; format: cell-based, human; conditions: optimal time (2, 3, 4 hours tested), highest concentration
Caco-2 cell monolayers = test: Transepithelial transport model, apical to basolateral; format: in vitro ADME; conditions: 2 hours, 37° C., not affected by initial polyphenolic concentration
[1] = Phenolic storage stability of açai oil, 10 weeks at 20, 30, 40° C.; format: physicochemical; conditions: for change in concentration after storage: 10 weeks at 20 or 30 ° C.

SMILES: CC[C@@]1(O)C(=O)OCc2c1cc1n(c2=O)Cc2cc3ccccc3nc2-1 [camptotechin]
caspase-3 activation (maximal) (caspase-3): 7 fold

SMILES: O=c1c(O)c(-c2ccc(O)c(O)c2)oc2cc(O)cc(O)c12 [Quercetin, quercetin]
caspase-3 activation (maximal) (caspase-3): double

SMILES: O=C(O)c1ccc(O)cc1 [p-hydroxybenzoic acid]
transport efficiency (percentage of initial apical concentration detected on basolateral side) (Caco-2 cell monolayers; from açai pulp extracts): approximately 2.0%
change in concentration after storage [1]: no significant changes

SMILES: Oc1cc(O)c2c(c1)O[C@H](c1ccc(O)c(O)c1)[C@@H](O)C2 [(+)-catechin]
transport efficiency (percentage of initial apical concentration detected on basolateral side) (Caco-2 cell monolayers; from açai oil extracts): approximately 0.1%
change in concentration after storage [1]: no significant changes

SMILES: O=C(O)c1ccc(O)c(O)c1 [protocatechuic acid, 3,4-dihydroxybenzoic acid]
change in concentration after storage [1]: no significant changes

SMILES: COc1cc(C(=O)O)cc(OC)c1O [syringic acid]
transport efficiency (percentage of initial apical concentration detected on basolateral side) (Caco-2 cell monolayers; from açai pulp extracts): approximately 0.6%
change in concentration after storage [1]: no significant changes

change in concentration after storage [1]: no significant changes
SMILES: COc1cc(C(=O)O)ccc1O [vanillic acid]

SMILES: COc1cc(/C=C/C(=O)O)ccc1O [ferulic acid]
transport efficiency (percentage of initial apical concentration detected on basolateral side) (Caco-2 cell monolayers; from açai oil extracts): approximately 0.1%
decrease in concentration after storage ([1]; 10 weeks at 20° C.): 9.3%
decrease in concentration after storage ([1]; 10 weeks at 30° C.): 20.3%
decrease / change in concentration after storage ([1]; 10 weeks at 40° C.): 33.1%
